From patent publication US12227500B2, “Substituted pyrrolo[2,3-b]pyridines for suppressing toxic endoplasmic reticulum stress” (THE TRUSTEES OF COLUMBIA UNIVERSITY IN THE CITY OF NEW YORK, priority 2018, dated 2025)

Experiments:
Assay in all cases: Radiolabeled ATP kinase assay, panel of 371 kinases (Table S6)
Assay type in all cases: biochemical
[1] = target: T1, panel of 371 human kinases (Homo sapiens, UniProt Q9BUB5); conditions: MNK1; 0.1 μM; 10 μM ATP; read-out: % Enzyme Activity (relative to DMSO controls)
T1 construct: purchased Reaction Biology Corp
Excerpt: (§1) ; FIG. 38C). […]. Further targeted analyses, such as genetic knock-down or knock-out, may be warranted to parse the role of these additional kinases in our model of neurodegeneration.

[2] = target: T2, panel of 371 human kinases (Homo sapiens, UniProt P45983); conditions: JNK1; 0.1 μM; 10 μM ATP; read-out: % Enzyme Activity (relative to DMSO controls)
T2 construct: purchased Reaction Biology Corp
Excerpt: as §1

[3] = target: T3, panel of 371 human kinases (Homo sapiens, UniProt Q86YV6); conditions: MYLK4; 0.1 μM; 10 μM ATP; read-out: % Enzyme Activity (relative to DMSO controls)
T3 construct: purchased Reaction Biology Corp
T3 sequence (Q86YV6 whole entry): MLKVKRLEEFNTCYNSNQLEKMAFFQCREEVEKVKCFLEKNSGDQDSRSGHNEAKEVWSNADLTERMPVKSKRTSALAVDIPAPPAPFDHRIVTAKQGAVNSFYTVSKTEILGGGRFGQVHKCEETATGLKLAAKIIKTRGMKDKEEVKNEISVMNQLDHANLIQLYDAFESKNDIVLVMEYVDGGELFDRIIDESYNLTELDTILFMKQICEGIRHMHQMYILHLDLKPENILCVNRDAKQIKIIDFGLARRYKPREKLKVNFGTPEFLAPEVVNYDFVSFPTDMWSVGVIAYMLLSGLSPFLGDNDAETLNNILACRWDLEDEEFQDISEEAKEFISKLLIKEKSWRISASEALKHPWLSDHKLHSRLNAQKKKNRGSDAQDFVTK
Excerpt: as §1

[4] = target: T4, panel of 371 human kinases (Homo sapiens, UniProt Q16513); conditions: PKN2/PRK2; 0.1 μM; 10 μM ATP; read-out: % Enzyme Activity (relative to DMSO controls)
T4 construct: purchased Reaction Biology Corp
Excerpt: as §1

[5] = target: T5, panel of 371 human kinases (Homo sapiens, UniProt P05129); conditions: PKCg; 0.1 μM; 10 μM ATP; read-out: % Enzyme Activity (relative to DMSO controls)
T5 construct: purchased Reaction Biology Corp
Excerpt: as §1

[6] = target: T6, panel of 371 human kinases (Homo sapiens, UniProt P51617); conditions: IRAK1; 0.1 μM; 10 μM ATP; read-out: % Enzyme Activity (relative to DMSO controls)
T6 construct: purchased Reaction Biology Corp
Excerpt: as §1

[7] = target: T7, panel of 371 human kinases (Homo sapiens, UniProt Q12866); conditions: c-MER; 0.1 μM; 10 μM ATP; read-out: % Enzyme Activity (relative to DMSO controls)
T7 construct: purchased Reaction Biology Corp
Excerpt: as §1

[8] = target: T8, panel of 371 human kinases (Homo sapiens, UniProt O95819); conditions: for remaining activity at 0.1 µM: HGK/MAP4K4, 10 μM ATP, read-out: % Enzyme Activity (relative to DMSO controls)
T8 construct: purchased Reaction Biology Corp
T8 sequence (O95819 whole entry): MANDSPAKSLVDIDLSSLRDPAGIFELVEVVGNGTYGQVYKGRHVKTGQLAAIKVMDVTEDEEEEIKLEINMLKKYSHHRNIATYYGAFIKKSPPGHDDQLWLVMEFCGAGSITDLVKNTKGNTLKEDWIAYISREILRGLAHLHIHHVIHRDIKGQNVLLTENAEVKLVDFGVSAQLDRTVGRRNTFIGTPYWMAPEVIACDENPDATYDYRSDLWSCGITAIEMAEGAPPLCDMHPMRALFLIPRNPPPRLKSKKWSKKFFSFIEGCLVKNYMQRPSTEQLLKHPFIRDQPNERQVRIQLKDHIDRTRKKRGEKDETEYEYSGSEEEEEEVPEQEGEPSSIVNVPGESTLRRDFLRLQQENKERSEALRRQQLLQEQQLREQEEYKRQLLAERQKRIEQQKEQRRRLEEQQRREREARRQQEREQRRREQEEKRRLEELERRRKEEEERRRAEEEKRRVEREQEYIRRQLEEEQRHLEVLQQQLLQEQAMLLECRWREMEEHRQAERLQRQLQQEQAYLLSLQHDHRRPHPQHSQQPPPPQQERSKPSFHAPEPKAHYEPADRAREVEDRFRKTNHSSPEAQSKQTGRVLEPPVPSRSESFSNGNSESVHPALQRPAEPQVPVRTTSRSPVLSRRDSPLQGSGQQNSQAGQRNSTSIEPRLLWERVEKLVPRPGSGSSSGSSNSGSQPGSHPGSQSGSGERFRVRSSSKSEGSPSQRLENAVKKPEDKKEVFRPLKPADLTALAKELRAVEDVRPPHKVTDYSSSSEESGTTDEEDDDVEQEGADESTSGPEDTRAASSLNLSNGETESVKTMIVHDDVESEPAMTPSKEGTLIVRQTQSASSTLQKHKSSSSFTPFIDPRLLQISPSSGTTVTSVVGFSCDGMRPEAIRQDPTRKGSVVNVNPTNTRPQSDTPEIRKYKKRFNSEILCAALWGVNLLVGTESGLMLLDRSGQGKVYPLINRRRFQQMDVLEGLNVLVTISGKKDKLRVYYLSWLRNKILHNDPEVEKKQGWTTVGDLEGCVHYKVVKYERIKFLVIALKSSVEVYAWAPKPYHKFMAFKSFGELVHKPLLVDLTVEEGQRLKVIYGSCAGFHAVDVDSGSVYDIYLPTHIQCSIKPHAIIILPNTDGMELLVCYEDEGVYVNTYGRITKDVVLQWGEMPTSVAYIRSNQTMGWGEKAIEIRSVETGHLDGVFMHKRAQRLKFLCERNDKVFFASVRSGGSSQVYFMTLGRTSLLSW
Excerpt: as §1

[9] = target: T9, panel of 371 human kinases (Homo sapiens, UniProt Q9NYY3); conditions: PLK2; 0.1 μM; 10 μM ATP; read-out: % Enzyme Activity (relative to DMSO controls)
T9 construct: purchased Reaction Biology Corp
Excerpt: as §1

[10] = target: T10, panel of 371 human kinases (Homo sapiens, UniProt Q13882); conditions: BRK; 0.1 μM; 10 μM ATP; read-out: % Enzyme Activity (relative to DMSO controls)
T10 construct: purchased Reaction Biology Corp
T10 sequence (Q13882 whole entry): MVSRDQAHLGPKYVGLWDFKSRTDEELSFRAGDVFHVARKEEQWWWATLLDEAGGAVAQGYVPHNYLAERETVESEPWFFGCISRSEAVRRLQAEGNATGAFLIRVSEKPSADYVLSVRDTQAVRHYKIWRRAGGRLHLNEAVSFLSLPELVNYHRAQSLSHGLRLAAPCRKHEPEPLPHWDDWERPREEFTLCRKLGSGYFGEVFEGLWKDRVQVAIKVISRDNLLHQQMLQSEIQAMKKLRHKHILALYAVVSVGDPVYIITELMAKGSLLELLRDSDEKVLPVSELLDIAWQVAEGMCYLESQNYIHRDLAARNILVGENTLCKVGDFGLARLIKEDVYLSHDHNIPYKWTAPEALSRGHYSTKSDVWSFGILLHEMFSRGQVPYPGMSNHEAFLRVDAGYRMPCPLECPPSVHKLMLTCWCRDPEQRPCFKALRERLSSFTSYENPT
Excerpt: as §1

[11] = target: T11, panel of 371 human kinases (Homo sapiens, UniProt Q9Y2U5); conditions: MEKK2; 0.1 μM; 10 μM ATP; read-out: % Enzyme Activity (relative to DMSO controls)
T11 construct: purchased Reaction Biology Corp
Excerpt: as §1

[12] = target: T12, panel of 371 human kinases (Homo sapiens, UniProt Q96L34); conditions: MARK4; 0.1 μM; 10 μM ATP; read-out: % Enzyme Activity (relative to DMSO controls)
T12 construct: purchased Reaction Biology Corp
Excerpt: as §1

[13] = target: T13, panel of 371 human kinases (Homo sapiens, UniProt Q99986); conditions: VRK1; 0.1 μM; 10 μM ATP; read-out: % Enzyme Activity (relative to DMSO controls)
T13 construct: purchased Reaction Biology Corp
Excerpt: as §1

[14] = target: T14, panel of 371 human kinases (Homo sapiens, UniProt Q9UBS0); conditions: p70S6Kb/RPS6KB2; 0.1 μM; 10 μM ATP; read-out: % Enzyme Activity (relative to DMSO controls)
T14 construct: purchased Reaction Biology Corp
Excerpt: as §1

[15] = target: T15, panel of 371 human kinases (Homo sapiens, UniProt Q96RR4); conditions: CAMKK2; 0.1 μM; 10 μM ATP; read-out: % Enzyme Activity (relative to DMSO controls)
T15 construct: purchased Reaction Biology Corp
Excerpt: as §1

[16] = target: T16, panel of 371 human kinases (Homo sapiens, UniProt O00141); conditions: SGK1; 0.1 μM; 10 μM ATP; read-out: % Enzyme Activity (relative to DMSO controls)
T16 construct: purchased Reaction Biology Corp
Excerpt: as §1

[17] = target: T17, panel of 371 human kinases (Homo sapiens, UniProt Q9Y4K4); conditions: for remaining activity at 0.1 µM: KHS/MAP4K5, 10 μM ATP, read-out: % Enzyme Activity (relative to DMSO controls)
T17 construct: purchased Reaction Biology Corp
T17 sequence (Q9Y4K4 whole entry): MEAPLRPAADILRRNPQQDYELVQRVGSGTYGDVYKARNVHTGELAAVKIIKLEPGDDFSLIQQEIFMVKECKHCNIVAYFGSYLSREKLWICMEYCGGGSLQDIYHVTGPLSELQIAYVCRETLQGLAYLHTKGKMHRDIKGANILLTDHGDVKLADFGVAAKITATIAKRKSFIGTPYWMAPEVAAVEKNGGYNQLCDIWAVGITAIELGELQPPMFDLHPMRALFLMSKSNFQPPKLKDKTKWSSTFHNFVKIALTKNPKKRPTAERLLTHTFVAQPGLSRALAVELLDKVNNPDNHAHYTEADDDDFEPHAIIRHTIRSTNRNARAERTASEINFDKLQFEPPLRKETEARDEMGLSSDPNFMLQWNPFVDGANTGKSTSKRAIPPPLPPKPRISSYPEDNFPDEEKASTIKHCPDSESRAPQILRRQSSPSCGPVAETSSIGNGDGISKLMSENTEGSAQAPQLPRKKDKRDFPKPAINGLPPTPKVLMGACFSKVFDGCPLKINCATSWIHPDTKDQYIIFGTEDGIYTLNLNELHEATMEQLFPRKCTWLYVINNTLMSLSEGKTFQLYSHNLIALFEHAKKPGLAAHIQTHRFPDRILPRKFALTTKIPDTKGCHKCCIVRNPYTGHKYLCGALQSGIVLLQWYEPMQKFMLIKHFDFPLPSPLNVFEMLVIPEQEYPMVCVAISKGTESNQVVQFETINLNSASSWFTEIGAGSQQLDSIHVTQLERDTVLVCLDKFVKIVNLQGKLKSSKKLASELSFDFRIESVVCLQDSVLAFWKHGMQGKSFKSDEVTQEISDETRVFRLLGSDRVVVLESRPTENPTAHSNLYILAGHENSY
Excerpt: as §1

[18] = target: T18, panel of 371 human kinases (Homo sapiens, UniProt Q92918); conditions: HPK1/MAP4K1; 0.1 μM; 10 μM ATP; read-out: % Enzyme Activity (relative to DMSO controls)
T18 construct: purchased Reaction Biology Corp
Excerpt: as §1

[19] = target: T19, panel of 371 human kinases (Homo sapiens, UniProt Q9H0K1); conditions: SIK2; 0.1 μM; 10 μM ATP; read-out: % Enzyme Activity (relative to DMSO controls)
T19 construct: purchased Reaction Biology Corp
Excerpt: as §1

[20] = target: T20, panel of 371 human kinases (Homo sapiens, UniProt Q00537); conditions: CDK17/cyclin Y (PCTK2); 0.1 μM; 10 μM ATP; read-out: % Enzyme Activity (relative to DMSO controls)
T20 construct: purchased Reaction Biology Corp
Excerpt: as §1

[21] = target: T21, panel of 371 human kinases (Homo sapiens, UniProt O96017); conditions: CHK2; 0.1 μM; 10 μM ATP; read-out: % Enzyme Activity (relative to DMSO controls)
T21 construct: purchased Reaction Biology Corp
Excerpt: as §1

[22] = target: T22, panel of 371 human kinases (Homo sapiens, UniProt P51813); conditions: BMX/ETK; 0.1 μM; 10 μM ATP; read-out: % Enzyme Activity (relative to DMSO controls)
T22 construct: purchased Reaction Biology Corp
T22 sequence (P51813 whole entry): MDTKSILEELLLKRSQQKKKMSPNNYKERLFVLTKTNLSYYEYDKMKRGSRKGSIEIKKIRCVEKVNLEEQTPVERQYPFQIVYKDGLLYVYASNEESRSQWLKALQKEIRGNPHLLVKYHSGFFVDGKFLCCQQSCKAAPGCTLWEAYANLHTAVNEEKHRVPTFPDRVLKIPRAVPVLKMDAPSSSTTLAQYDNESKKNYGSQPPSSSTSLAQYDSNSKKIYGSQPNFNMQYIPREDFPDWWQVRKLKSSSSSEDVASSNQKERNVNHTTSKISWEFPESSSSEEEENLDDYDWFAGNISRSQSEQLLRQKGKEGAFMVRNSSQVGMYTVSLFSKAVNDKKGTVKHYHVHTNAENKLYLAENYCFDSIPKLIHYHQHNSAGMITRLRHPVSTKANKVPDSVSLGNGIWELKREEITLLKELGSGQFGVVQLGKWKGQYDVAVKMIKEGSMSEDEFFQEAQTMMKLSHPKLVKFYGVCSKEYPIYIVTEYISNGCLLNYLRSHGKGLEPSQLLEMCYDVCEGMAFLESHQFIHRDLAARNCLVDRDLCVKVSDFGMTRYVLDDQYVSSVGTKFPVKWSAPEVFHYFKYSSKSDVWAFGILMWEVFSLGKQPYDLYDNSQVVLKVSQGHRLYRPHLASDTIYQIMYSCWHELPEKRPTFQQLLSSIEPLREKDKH
Excerpt: as §1

[23] = target: T23, panel of 371 human kinases (Homo sapiens, UniProt Q02779); conditions: MLK2/MAP3K10; 0.1 μM; 10 μM ATP; read-out: % Enzyme Activity (relative to DMSO controls)
T23 construct: purchased Reaction Biology Corp
Excerpt: as §1

[24] = target: T24, panel of 371 human kinases (Homo sapiens, UniProt Q86Z02); conditions: HIPK1; 0.1 μM; 10 μM ATP; read-out: % Enzyme Activity (relative to DMSO controls)
T24 construct: purchased Reaction Biology Corp
Excerpt: as §1

[25] = target: T25, panel of 371 human kinases (Homo sapiens, UniProt Q9H422); conditions: HIPK3; 0.1 μM; 10 μM ATP; read-out: % Enzyme Activity (relative to DMSO controls)
T25 construct: purchased Reaction Biology Corp
T25 sequence (Q9H422 whole entry): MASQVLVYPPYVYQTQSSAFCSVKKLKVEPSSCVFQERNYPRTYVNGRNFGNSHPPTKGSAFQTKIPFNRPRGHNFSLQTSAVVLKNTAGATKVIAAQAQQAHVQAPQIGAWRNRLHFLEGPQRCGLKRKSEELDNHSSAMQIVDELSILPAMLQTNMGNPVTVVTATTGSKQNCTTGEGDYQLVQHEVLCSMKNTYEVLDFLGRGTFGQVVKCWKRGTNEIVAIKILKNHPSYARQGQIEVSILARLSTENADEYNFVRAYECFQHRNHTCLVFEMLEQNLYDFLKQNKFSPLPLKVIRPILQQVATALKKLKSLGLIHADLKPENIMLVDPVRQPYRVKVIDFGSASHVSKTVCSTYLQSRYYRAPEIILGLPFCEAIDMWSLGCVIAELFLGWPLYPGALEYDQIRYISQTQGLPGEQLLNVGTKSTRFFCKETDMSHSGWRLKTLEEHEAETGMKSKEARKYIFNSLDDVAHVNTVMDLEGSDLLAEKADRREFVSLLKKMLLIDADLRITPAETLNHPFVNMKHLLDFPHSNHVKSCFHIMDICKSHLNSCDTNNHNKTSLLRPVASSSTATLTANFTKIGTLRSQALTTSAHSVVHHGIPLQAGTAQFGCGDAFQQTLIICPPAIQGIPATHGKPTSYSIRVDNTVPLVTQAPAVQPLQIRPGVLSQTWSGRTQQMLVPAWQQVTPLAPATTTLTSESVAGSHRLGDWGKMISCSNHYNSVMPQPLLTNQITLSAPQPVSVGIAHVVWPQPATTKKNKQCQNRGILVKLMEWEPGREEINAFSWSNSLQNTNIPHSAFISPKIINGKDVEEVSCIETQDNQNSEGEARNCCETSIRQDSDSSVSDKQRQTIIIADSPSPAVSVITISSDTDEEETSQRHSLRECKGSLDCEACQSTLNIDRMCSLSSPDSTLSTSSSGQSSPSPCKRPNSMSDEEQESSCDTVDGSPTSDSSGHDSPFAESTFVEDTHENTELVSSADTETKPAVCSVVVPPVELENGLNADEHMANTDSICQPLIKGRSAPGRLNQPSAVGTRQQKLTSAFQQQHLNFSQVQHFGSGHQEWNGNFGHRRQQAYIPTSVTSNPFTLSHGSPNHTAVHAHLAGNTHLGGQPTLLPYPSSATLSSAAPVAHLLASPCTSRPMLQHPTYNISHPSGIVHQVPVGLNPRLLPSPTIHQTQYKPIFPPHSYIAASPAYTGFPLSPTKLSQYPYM
Excerpt: as §1

CN1CCN(Cc2ccc(-c3cnc4[nH]cc(-c5ccc6[nH]ccc6c5)c4c3)cc2)CC1 [Compound 1, 3-(1H-Indol-5-yl)-5-(4-((4-methylpiperazin-1-yl)methyl)phenyl)-1H-pyrrolo[2,3-b]pyridine, reference compound]
remaining activity at 0.1 µM [1]: 94%
remaining activity at 0.1 µM [2]: 98.2%
remaining activity at 0.1 µM [3]: 53.6%
remaining activity at 0.1 µM [4]: 81.6%
remaining activity at 0.1 µM [5]: 89%
remaining activity at 0.1 µM [6]: 86.2%
remaining activity at 0.1 µM [7]: 81.2%
remaining activity at 0.1 µM [8]: 20.2%
remaining activity at 0.1 µM [9]: 97.2%
remaining activity at 0.1 µM [10]: 86.4%
remaining activity at 0.1 µM [11]: 102%
remaining activity at 0.1 µM [12]: 76%
remaining activity at 0.1 µM [13]: 95.8%
remaining activity at 0.1 µM [14]: 107%
remaining activity at 0.1 µM [15]: 97.7%
remaining activity at 0.1 µM [16]: 96%
remaining activity at 0.1 µM [17]: 31.4%
remaining activity at 0.1 µM [18]: 49.6%
remaining activity at 0.1 µM [19]: 83.2%
remaining activity at 0.1 µM [20]: 88%
remaining activity at 0.1 µM [21]: 85.2%
remaining activity at 0.1 µM [22]: 101%
remaining activity at 0.1 µM [23]: 84.1%
remaining activity at 0.1 µM [24]: 106%
remaining activity at 0.1 µM [25]: 103%

OCCN1CCN(Cc2ccc(-c3cnc4[nH]cc(-c5cccc(Cl)c5)c4c3)cc2)CC1 [Compound 12k, 2-(4-(4-(3-(3-Chlorophenyl)-1H-pyrrolo[2,3-b]pyridin-5-yl)benzyl)piperazin-1-yl)ethan-1-ol]
remaining activity at 0.1 µM [1]: 90.7%
remaining activity at 0.1 µM [2]: 86.8%
remaining activity at 0.1 µM [3]: 37.2%
remaining activity at 0.1 µM [4]: 59.5%
remaining activity at 0.1 µM [5]: 106%
remaining activity at 0.1 µM [6]: 73.2%
remaining activity at 0.1 µM [7]: 75.1%
fold change in HGK activity following 12k exposure relative to 1 ([8]; 0.025 μM): 14.92 fold
remaining activity at 0.1 µM [8]: 1.35%
remaining activity at 0.1 µM [9]: 101%
remaining activity at 0.1 µM [10]: 95%
remaining activity at 0.1 µM [11]: 93.3%
remaining activity at 0.1 µM [12]: 40%
remaining activity at 0.1 µM [13]: 88.3%
remaining activity at 0.1 µM [14]: 95%
remaining activity at 0.1 µM [15]: 94.9%
remaining activity at 0.1 µM [16]: 99.6%
fold change in KHS activity following 12k exposure relative to 1 ([17]; 0.025 μM): 17.36 fold
remaining activity at 0.1 µM [17]: 1.81%
remaining activity at 0.1 µM [18]: 47.9%
remaining activity at 0.1 µM [19]: 59.8%
remaining activity at 0.1 µM [20]: 74%
remaining activity at 0.1 µM [21]: 93.5%
remaining activity at 0.1 µM [22]: 103%
remaining activity at 0.1 µM [23]: 73.1%
remaining activity at 0.1 µM [24]: 96%
remaining activity at 0.1 µM [25]: 113%
